The test system of one test is primary human T-cells. Briefly: Proliferation assay (5 days, CellTiter-Glo, CD3-stimulated T-cells). The test is classed as cell-based. As to conditions: for Emax proliferation (% activation): CD3 condition, normalised to DMSO (neutral) and 20 μM reference compound A1 = 100%; for EC50: Homo sapiens, T-cell, 120 h, CD3-stimulated primary human T-cells, 5 days, CellTiter-Glo, fitted sigmoidal curve, read-out: Tcell Proliferation CD3 EC50. An outline of the steps: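 Proliferation read-out: ATP luminescence (CellTiter-Glo 2.0) at day 5 in expanded primary human T-cells on CD3 antibody-coated plates, with PBS-only plates as a counter screen. Compounds in 5–6 pt series (factor 3.333, top 20 or 10 μM final). Values are normalized to DMSO (neutral) and 20 μM reference A1 (100%), from sigmoidal fits.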
(ATP-based viability assays read luminescence as a measure of living cells.)

Test [1] has as its target T1, DGKα (hDGKalpha(1-735)-N-His) (Homo sapiens, UniProt P23743).
T1 construct: hDGKalpha(1-735)-N-His; His (N); made in house; host or cells: Sf21 insect cells (baculovirus)
The test can be described thus: In vitro DGK inhibition assay, DGKalpha ADP Glo (in house). As to conditions: 4 nM DGKα, 25 μM ATP, 125 uM DLG in liposomes, 1 hour reaction. The format is biochemical. The gist of the method: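 ADP-Glo luminescence measured ADP formed over 1 h by Sf21-expressed full-length human enzymes: DGKα at 4 nM with 25 µM ATP, DGKζ at 2 nM with 50 µM ATP, both on 125 µM DLG in PS/PC liposomes. Dose–response used 11 threefold dilutions at 2% final DMSO.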
A general note: In ADP-Glo the light output rises with the ADP produced.

Experimental findings from US20260138976A1 (Hoffmann-La Roche Inc., priority 2022, published 2026) are described below.

As usually defined, the IC50 is the concentration needed to halve the response being measured.

A value given as a limit tells only on which side of the number the result lay.

T1 sequence (P23743 whole entry): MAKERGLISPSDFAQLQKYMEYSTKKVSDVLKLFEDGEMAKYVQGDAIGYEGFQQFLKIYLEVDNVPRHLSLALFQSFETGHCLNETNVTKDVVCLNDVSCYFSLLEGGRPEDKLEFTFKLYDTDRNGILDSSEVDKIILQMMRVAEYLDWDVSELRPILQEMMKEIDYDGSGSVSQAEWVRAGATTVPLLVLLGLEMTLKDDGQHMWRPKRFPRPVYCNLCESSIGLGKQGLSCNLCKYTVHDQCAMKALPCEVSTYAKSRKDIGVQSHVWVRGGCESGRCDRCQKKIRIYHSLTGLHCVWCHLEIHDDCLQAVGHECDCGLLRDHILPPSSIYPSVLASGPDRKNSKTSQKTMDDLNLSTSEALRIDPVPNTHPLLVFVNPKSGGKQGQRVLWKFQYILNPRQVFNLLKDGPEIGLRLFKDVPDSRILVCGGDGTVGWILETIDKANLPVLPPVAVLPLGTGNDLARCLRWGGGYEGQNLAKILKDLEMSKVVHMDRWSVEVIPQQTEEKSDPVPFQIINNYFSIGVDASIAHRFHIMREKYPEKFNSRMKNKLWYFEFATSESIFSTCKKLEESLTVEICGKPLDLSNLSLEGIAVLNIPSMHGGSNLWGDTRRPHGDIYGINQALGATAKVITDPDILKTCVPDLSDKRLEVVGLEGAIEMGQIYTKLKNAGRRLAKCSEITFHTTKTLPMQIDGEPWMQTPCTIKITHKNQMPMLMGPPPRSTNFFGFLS

In the case of `CC(C)(C)c1nnc(-c2ccc3c(c2)N(Cc2ccc(-c4nc(C(F)(F)F)co4)cc2)C(=O)[C@@H](N)CS3(=O)=O)o1` [Example 89, (3R)-3-amino-7-(5-tert-butyl-1,3,4-oxadiazol-2-yl)-1,1-dioxo-5-[[4-[4-(trifluoromethyl)oxazol-2-yl]phenyl]methyl]-2,3-dihydro-1λ^6,5-benzothiazepin-4-one], in the test on primary human T-cells, the “Emax proliferation (% activation)” value is 153 % activation and the EC50 came to 203 nM. In test [1], this compound displayed an IC50 of 8270 nM.
In the same order, the values of `CC(C)(C)c1nnc(-c2ccc3c(c2)N(Cc2ccc(-n4cnc(C(F)(F)F)n4)cc2)C(=O)[C@@H](N)CS3(=O)=O)o1` [Example 91, (3R)-3-amino-7-(5-tert-butyl-1,3,4-oxadiazol-2-yl)-1,1-dioxo-5-[[4-[3-(trifluoromethyl)-1,2,4-triazol-1-yl]phenyl]methyl]-2,3-dihydro-126,5-benzothiazepin-4-one] are 127 % activation, 404 nM and 4240 nM.
Consider `N[C@H]1CS(=O)(=O)c2ccc(-c3nnc(C4(C5CC5)CCCO4)o3)cc2N(Cc2ccc(-c3nnc(C(F)(F)F)o3)cc2)C1=O` (stereo partly drawn) [Example 97, (3R)-3-amino-7-[5-(2-cyclopropyltetra-hydrofuran-2-yl)-1,3,4-oxadiazol-2-yl]-1,1-dioxo-5-[[4-[5-(trifluoromethyl)-1,3,4-oxadiazol-2-yl]phenyl]methyl]-2,3-dihydro-1λ6,5-benzothiazepin-4-one], for which, in the test on primary human T-cells, the “Emax proliferation (% activation)” value worked out at 96 % activation and the EC50 was 375 nM. In test [1], this compound displayed an IC50 of 4680 nM.
In the same order, the values of `CC(c1nc(-c2ccc(CN3C(=O)[C@@H](N)CS(=O)(=O)c4ccc(-c5nnc(C6(N)CCCCC6)o5)cc43)cc2)no1)C(F)(F)F` (stereo partly drawn) [Example 98, (3R)-3-amino-7-[5-(1-aminocyclohexyl)-1,3,4-oxadiazol-2-yl]-1,1-dioxo-5-[[4-[5-(2,2,2-trifluoro-1-methyl-ethyl)-1,2,4-oxadiazol-3-yl]phenyl]methyl]-2,3-dihydro-1λ^6,5-benzothiazepin-4-one] are 97 % activation, 1820 nM and 23800 nM.
With `CC(C)(C#N)c1nnc(-c2ccc3c(c2)N(Cc2ccc(-n4ccc(C(F)(F)F)n4)cc2)C(=O)[C@@H](N)CS3(=O)=O)o1` [Example 121, 2-[5-[(3R)-3-amino-1,1,4-trioxo-5-[[4-[3-(trifluoromethyl)pyrazol-1-yl]phenyl]methyl]-2,3-dihydro-1λ^6,5-benzothiazepin-7-yl]-1,3,4-oxadiazol-2-yl]-2-methyl-propanenitrile], in the test with primary human T-cells, the “Emax proliferation (% activation)” value turned out to be 160 % activation and the EC50 was 1090 nM. This compound also displayed an IC50 in test [1] above 6250 nM.
Consider `CC(C)(C#N)c1nnc(-c2ccc3c(c2)N(Cc2ccc(-c4ccc(OC(F)(F)F)cn4)cc2)C(=O)[C@@H](N)CS3(=O)=O)o1` [Example 124], for which, in the test with primary human T-cells, the “Emax proliferation (% activation)” value is reported as 153 % activation and the EC50 stood at 114 nM. The same compound gave an IC50 in test [1] of 2400 nM.
Take `CC1(c2nnc(-c3ccc4c(c3)N(Cc3ccc(-c5noc(C(F)(F)F)n5)cc3)C(=O)[C@@H](N)CS4(=O)=O)o2)COC1` [Example 149, (3R)-3-amino-7-[5-(3-methyloxetan-3-yl)-1,3,4-oxadiazol-2-yl]-1,1-dioxo-5-[[4-[5-(trifluoromethyl)-1,2,4-oxadiazol-3-yl]phenyl]methyl]-2,3-dihydro-1λ^6,5-benzothiazepin-4-one]: in the test with primary human T-cells, the “Emax proliferation (% activation)” value is listed as 118 % activation and the EC50 is 1210 nM. Besides, the IC50 in test [1] was above 62500 nM.
As to `CC1(c2nnc(-c3ccc4c(c3)N(Cc3ccc(-c5ccc(C(F)(F)F)cn5)cc3)C(=O)[C@@H](N)CS4(=O)=O)o2)COC1` [Example 150, (3R)-3-amino-7-[5-(3-methyloxetan-3-yl)-1,3,4-oxadiazol-2-yl]-1,1-dioxo-5-[[4-[5-(trifluoromethyl)-2-pyridyl]phenyl]methyl]-2,3-dihydro-1λ^6,5-benzothiazepin-4-one], in the test with primary human T-cells, the “Emax proliferation (% activation)” value turned out to be 79 % activation and the EC50 worked out at 656 nM. Further, the half-inhibitory concentration (IC50) in test [1] is above 19800 nM.
For `C[C@@](N)(c1nnc(-c2ccc3c(c2)N(Cc2ccc(-n4ccc(C(F)(F)F)n4)cc2)C(=O)[C@@H](N)CS3(=O)=O)o1)C(F)(F)F` [Example 157, (3R)-3-amino-7-[5-[(1R)-1-amino-2,2,2-trifluoro-1-methyl-ethyl]-1,3,4-oxadiazol-2-yl]-1,1-dioxo-5-[[4-[3-(trifluoromethyl)pyrazol-1-yl]phenyl]methyl]-2,3-dihydro-1λ^6,5-benzothiazepin-4-one] the same measures were 130 % activation, 600 nM and 41400 nM.
Consider `COC(=O)N1CC2CC(c3nnc(-c4ccc5c(c4)N(Cc4ccc(-c6ccc(C(F)(F)F)cn6)cc4)C(=O)[C@@H](N)CS5(=O)=O)o3)(C2)C1` [Example 159, methyl 1-[5-[(3R)-3-amino-1,1,4-trioxo-5-[[4-[5-(trifluoromethyl)-2-pyridyl]phenyl]methyl]-2,3-dihydro-1λ^6,5-benzothiazepin-7-yl]-1,3,4-oxadiazol-2-yl]-3-azabicyclo[3.1.1]heptane-3-carboxylate], for which, in the test on primary human T-cells, the “Emax proliferation (% activation)” value was determined as 146 % activation and the EC50 was found to be 152 nM. The compound further showed an IC50 in test [1] of 1950 nM.
In the same order, the values of `N[C@H]1CS(=O)(=O)c2ccc(-c3nnc(N4CCC(F)(F)CC4)o3)cc2N(Cc2ccc(-c3nc(C(F)(F)F)no3)cc2)C1=O` [Example 161, (3R)-3-amino-7-[5-(4,4-difluoro-1-piperidyl)-1,3,4-oxadiazol-2-yl]-1,1-dioxo-5-[[4-[3-(trifluoromethyl)-1,2,4-oxadiazol-5-yl]phenyl]methyl]-2,3-dihydro-1λ^6,5-benzothiazepin-4-one] are 178 % activation, 327 nM and above 62500 nM.
In the case of `N#CC1CN(c2nnc(-c3ccc4c(c3)N(Cc3ccc(-c5noc(C(F)(F)F)n5)cc3)C(=O)[C@@H](N)CS4(=O)=O)o2)CCO1` (stereo partly drawn) [Example 163, 4-[5-[(3R)-3-amino-1,1,4-trioxo-5-[[4-[5-(trifluoromethyl)-1,2,4-oxadiazol-3-yl]phenyl]methyl]-2,3-dihydro-1λ^6,5-benzothiazepin-7-yl]-1,3,4-oxadiazol-2-yl]morpholine-2-carbonitrile], in the test on primary human T-cells, the “Emax proliferation (% activation)” value came out at 106 % activation and the EC50 was 6440 nM. For the same compound, in test [1], the IC50 is above 62500 nM.
Take `COCC1CN(c2nnc(-c3ccc4c(c3)N(Cc3ccc(-c5noc(C(F)(F)F)n5)cc3)C(=O)[C@@H](N)CS4(=O)=O)o2)CCO1` (stereo partly drawn) [Example 164, (3R)-3-amino-7-[5-[2-(methoxymethyl)morpholin-4-yl]-1,3,4-oxadiazol-2-yl]-1,1-dioxo-5-[[4-[5-(trifluoromethyl)-1,2,4-oxadiazol-3-yl]phenyl]methyl]-2,3-dihydro-1λ^6,5-benzothiazepin-4-one]: in the test on primary human T-cells, the “Emax proliferation (% activation)” value turned out to be 86 % activation and the EC50 stood at 390 nM. Further, the IC50 in test [1] was above 62500 nM.
In the case of `CC(C)(c1nnc(-c2ccc3c(c2)N(Cc2ccc(-c4noc(C(F)(F)F)n4)cc2)C(=O)[C@@H](N)CS3(=O)=O)o1)C(F)(F)F` [Example 166], in the test on primary human T-cells, the “Emax proliferation (% activation)” value is recorded as 164 % activation and the EC50 came to 75.9 nM. In addition, the midpoint of inhibition in test [1], the IC50, lay at 3030 nM.
